ChEMBL document CHEMBL5247608, “HIV-1 gp120-CXCR4 recognition probed with synthetic nanomolar affinity D-peptides containing fragments of gp120 V3 loop” (Eur J Med Chem, 2022)
The source made the active and inactive calls. The rule behind the calls is not given here.

Assays:
[1] = system: C-X-C chemokine receptor type 4 (Homo sapiens), P61073 [W94A]; assay: Displacement of 12G5 mAb from CXCR4 W94A mutant (unknown origin) expressed in CHO cells at 200 nM incubated for 40 mins by spectrophotometric method; format: cell-based
C-X-C chemokine receptor type 4 (Homo sapiens), P61073 [W94A], sequence (P61073 whole entry W94A): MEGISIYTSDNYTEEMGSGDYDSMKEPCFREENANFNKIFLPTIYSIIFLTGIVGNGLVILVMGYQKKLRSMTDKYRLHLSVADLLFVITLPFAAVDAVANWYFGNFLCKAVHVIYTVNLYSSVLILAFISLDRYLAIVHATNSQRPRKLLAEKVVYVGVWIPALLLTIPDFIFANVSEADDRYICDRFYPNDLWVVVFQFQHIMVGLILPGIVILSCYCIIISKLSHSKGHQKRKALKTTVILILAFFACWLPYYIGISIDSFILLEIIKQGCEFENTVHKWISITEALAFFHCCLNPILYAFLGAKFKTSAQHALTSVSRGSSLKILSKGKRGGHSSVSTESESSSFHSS

[2] = system: C-X-C chemokine receptor type 4 (Homo sapiens), P61073 [W195A]; assay: Displacement of 12G5 mAb from CXCR4 W195A mutant (unknown origin) expressed in CHO cells at 200 nM incubated for 40 mins by spectrophotometric method; format: cell-based
C-X-C chemokine receptor type 4 (Homo sapiens), P61073 [W195A], sequence (P61073 whole entry W195A): as the sequence (P61073 whole entry W94A) above, with A94W, W195A counted along it

[3] = system: C-X-C chemokine receptor type 4 (Homo sapiens), P61073 [Y45A]; assay: Displacement of 12G5 mAb from CXCR4 Y45A mutant (unknown origin) expressed in CHO cells at 200 nM incubated for 40 mins by spectrophotometric method; format: cell-based; conditions: filed as antagonist
C-X-C chemokine receptor type 4 (Homo sapiens), P61073 [Y45A], sequence (P61073 whole entry Y45A): as the sequence (P61073 whole entry W94A) above, with Y45A, A94W counted along it

[4] = system: C-X-C chemokine receptor type 4 (Homo sapiens), P61073 [N119A]; assay: Displacement of 12G5 mAb from CXCR4 N119A mutant (unknown origin) expressed in CHO cells at 200 nM incubated for 40 mins by spectrophotometric method; format: cell-based
C-X-C chemokine receptor type 4 (Homo sapiens), P61073 [N119A], sequence (P61073 whole entry N119A): as the sequence (P61073 whole entry W94A) above, with A94W, N119A counted along it

[5] = system: Human immunodeficiency virus 1; assay: Antiviral activity against HIV-1 X4 NL4-3 infected in human PBMC assessed as inhibition of viral replication by measuring reduction in p24 antigen level at 10 uM measured after 5 days by ELISA; format: functional, organism-based; conditions: time 5.0 day
[6] = system: C-X-C chemokine receptor type 4 (Homo sapiens), P61073 [D171A]; assay: Displacement of 12G5 mAb from CXCR4 D171A mutant (unknown origin) expressed in CHO cells at 200 nM incubated for 40 mins by spectrophotometric method; format: cell-based; conditions: filed as antagonist
C-X-C chemokine receptor type 4 (Homo sapiens), P61073 [D171A], sequence (P61073 whole entry D171A): as the sequence (P61073 whole entry W94A) above, with A94W, D171A counted along it

[7] = target: T1, C-X-C chemokine receptor type 4 (Homo sapiens, UniProt P61073); assay: Antagonist activity against CXCR4 in human SUP-T1 cells assessed as inhibition of SDF-1alpha-induced intracellular calcium mobilization by Fluo-4AM dye based fluorescence analysis; format: cell-based; conditions: filed as antagonist, dose 0.01-10 µM
T1 sequence (P61073 whole entry): as the sequence (P61073 whole entry W94A) above, with A94W counted along it

[8] = system: C-X-C chemokine receptor type 4 (Homo sapiens), P61073 [F87A]; assay: Displacement of 12G5 mAb from CXCR4 F87A mutant (unknown origin) expressed in CHO cells at 200 nM incubated for 40 mins by spectrophotometric method; format: cell-based
C-X-C chemokine receptor type 4 (Homo sapiens), P61073 [F87A], sequence (P61073 whole entry F87A): as the sequence (P61073 whole entry W94A) above, with F87A, A94W counted along it

[9] = system: Human immunodeficiency virus 1; assay: Antiviral activity against HIV-1 R5 Bal-6 infected in human PBMC assessed as inhibition of viral replication by measuring reduction in p24 antigen level at 10 uM measured after 5 days by ELISA; format: functional, organism-based; conditions: time 5.0 day
[10] = system: C-X-C chemokine receptor type 4 (Homo sapiens), P61073 [H113A]; assay: Displacement of 12G5 mAb from CXCR4 H113A mutant (unknown origin) expressed in CHO cells at 200 nM incubated for 40 mins by spectrophotometric method; format: cell-based
C-X-C chemokine receptor type 4 (Homo sapiens), P61073 [H113A], sequence (P61073 whole entry H113A): as the sequence (P61073 whole entry W94A) above, with A94W, H113A counted along it

[11] = system: C-X-C chemokine receptor type 4 (Homo sapiens), P61073 [W161A]; assay: Displacement of 12G5 mAb from CXCR4 W161A mutant (unknown origin) expressed in CHO cells at 200 nM incubated for 40 mins by spectrophotometric method; format: cell-based
C-X-C chemokine receptor type 4 (Homo sapiens), P61073 [W161A], sequence (P61073 whole entry W161A): as the sequence (P61073 whole entry W94A) above, with A94W, W161A counted along it

[12] = target: T1, C-X-C chemokine receptor type 4; assay: Antagonist activity against CXCR4 in human SUP-T1 cells assessed as inhibition of SDF-1alpha-induced cell migration at 10 uM preincubated with cells for 30 mins followed by incubation with SDF-1alpha for 3 hrs by CellTiter-96 reagent based transwell assay; conditions: filed as antagonist, time 210.0 min
[13] = target: T1, C-X-C chemokine receptor type 4; assay: Displacement of 12G5 mAb from CXCR4 (unknown origin) expressed in CHO cells incubated for 40 mins by spectrophotometric method; format: cell-based
[14] = target: T1, C-X-C chemokine receptor type 4; assay: Antagonist activity against CXCR4 in human SUP-T1 cells assessed as inhibition of SDF-1alpha-induced cell migration preincubated with cells for 30 mins followed by incubation with SDF-1alpha for 3 hrs by CellTiter-96 reagent based transwell assay; conditions: filed as antagonist, time 210.0 min
[15] = system: C-X-C chemokine receptor type 4 (Homo sapiens), P61073 [T117A]; assay: Displacement of 12G5 mAb from CXCR4 T117A mutant (unknown origin) expressed in CHO cells at 200 nM incubated for 40 mins by spectrophotometric method; format: cell-based; conditions: filed as antagonist
C-X-C chemokine receptor type 4 (Homo sapiens), P61073 [T117A], sequence (P61073 whole entry T117A): as the sequence (P61073 whole entry W94A) above, with A94W, T117A counted along it

[16] = target: T1, C-X-C chemokine receptor type 4; assay: Antagonist activity against EGFP-tagged CXCR4 (unknown origin) transfected in CHO cells assessed as inhibition of SDF-1alpha-induced receptor internalization at 10 uM preincubated for 10 mins followed by SDF-1alpha addition by confocal microscopy; format: cell-based; conditions: filed as antagonist
[17] = system: C-X-C chemokine receptor type 4 (Homo sapiens), P61073 [D262N]; assay: Displacement of 12G5 mAb from CXCR4 D262N mutant (unknown origin) expressed in CHO cells at 200 nM incubated for 40 mins by spectrophotometric method; format: cell-based
C-X-C chemokine receptor type 4 (Homo sapiens), P61073 [D262N], sequence (P61073 whole entry D262N): as the sequence (P61073 whole entry W94A) above, with A94W, D262N counted along it

[18] = target: T1, C-X-C chemokine receptor type 4; assay: Antagonist activity against EGFP-tagged CXCR4 (unknown origin) transfected in CHO cells assessed as inhibition of SDF-1alpha-induced receptor internalization at 0.01 to 10 uM preincubated for 10 mins followed by SDF-1alpha addition by confocal microscopy; format: cell-based; conditions: filed as antagonist, dose 0.01-10 µM
[19] = system: C-X-C chemokine receptor type 4 (Homo sapiens), P61073 [E288D]; assay: Displacement of 12G5 mAb from CXCR4 E288D mutant (unknown origin) expressed in CHO cells at 200 nM incubated for 40 mins by spectrophotometric method; format: cell-based
C-X-C chemokine receptor type 4 (Homo sapiens), P61073 [E288D], sequence (P61073 whole entry E288D): as the sequence (P61073 whole entry W94A) above, with A94W, E288D counted along it

[20] = system: C-X-C chemokine receptor type 4 (Homo sapiens), P61073 [D193A]; assay: Displacement of 12G5 mAb from CXCR4 D193A mutant (unknown origin) expressed in CHO cells at 200 nM incubated for 40 mins by spectrophotometric method; format: cell-based
C-X-C chemokine receptor type 4 (Homo sapiens), P61073 [D193A], sequence (P61073 whole entry D193A): as the sequence (P61073 whole entry W94A) above, with A94W, D193A counted along it

[21] = system: C-X-C chemokine receptor type 4 (Homo sapiens), P61073 [E288A]; assay: Displacement of 12G5 mAb from CXCR4 E288A mutant (unknown origin) expressed in CHO cells at 200 nM incubated for 40 mins by spectrophotometric method; format: cell-based
C-X-C chemokine receptor type 4 (Homo sapiens), P61073 [E288A], sequence (P61073 whole entry E288A): as the sequence (P61073 whole entry W94A) above, with A94W, E288A counted along it

[22] = target: T1, C-X-C chemokine receptor type 4; assay: Antagonist activity against CXCR4 in human SUP-T1 cells assessed as inhibition of SDF-1alpha-induced intracellular calcium mobilization at 10 uM by Fluo-4AM dye based fluorescence analysis; format: cell-based; conditions: filed as antagonist
[23] = Cytotoxicity against human PBMC assessed as reduction in cell viability at 0.016 to 10 uM incubated for 5 days by CellTiter-Blue assay; format: toxicity, cell-based; conditions: 120 h, dose 0.016-10 µM, time 5 day
[24] = system: Human immunodeficiency virus 1; assay: Antiviral activity against HIV-1 R5 Bal-6 infected in human PBMC assessed as inhibition of viral replication by measuring reduction in p24 antigen level at 0.1 to 10 uM measured after 5 days by ELISA; format: functional, organism-based; conditions: dose 0.1-10 µM, time 5.0 day
[25] = system: Human immunodeficiency virus 1; assay: Antiviral activity against HIV-1 X4 NL4-3 infected in human PBMC assessed as inhibition of viral replication by measuring reduction in p24 antigen level measured after 5 days by ELISA; format: functional, organism-based; conditions: Human immunodeficiency virus 1, X4 NL4-3, PBMC, 120 h

CC(C)C[C@@H](N)C(=O)NCC(=O)N[C@H](C)C(=O)N[C@H](CO)C(=O)N[C@H](Cc1c[nH]c2ccccc12)C(=O)N[C@H](Cc1cnc[nH]1)C(=O)N[C@H](CCCNC(=N)N)C(=O)N1CCC[C@@H]1C(=O)N[C@H](CC(=O)O)C(=O)N[C@H](CCCCN)C(=O)N[C@H](CCCCN)C(=O)N[C@H](CCCNC(=N)N)C(=O)N(CCCCCC(=O)O)[C@H](CCCCN)C(=O)N[C@H](CCCNC(=N)N)C(=O)N[C@H](CCCCN)C(=O)N[C@H](CCC(N)=O)C(=O)N[C@H](CCCNC(=N)N)C(=O)NCC(=O)N1CCC[C@@H]1C(=O)NCC(=O)N[C@H](CCCNC(=N)N)C(=O)N[C@H](C)C(=O)N[C@H](Cc1ccccc1)C(N)=O
inhibition [1]: inactive | inhibition [2]: inactive | inhibition [3]: Active | inhibition [4]: inactive | Activity [5]: Active | inhibition [6]: Active | inhibition [7]: Dose-Dependent Effect | inhibition [8]: inactive | Activity [9]: Active | inhibition [10]: inactive | inhibition [11]: inactive | inhibition [12]: 100% | IC50 [13]: 43.4 nM | inhibition [14]: Dose-Dependent Effect | inhibition [15]: Active | inhibition [16]: 100% | inhibition [17]: inactive | inhibition [18]: Active | inhibition [19]: inactive | inhibition [20]: inactive | inhibition [21]: inactive | inhibition [22]: 100% | Activity [23]: Non-Toxic

CC(C)C[C@@H](N)C(=O)NCC(=O)N[C@H](C)C(=O)N[C@H](CO)C(=O)N[C@H](Cc1c[nH]c2ccccc12)C(=O)N[C@H](Cc1cnc[nH]1)C(=O)N[C@H](CCCNC(=N)N)C(=O)N1CCC[C@@H]1C(=O)N[C@H](CC(=O)O)C(=O)N[C@H](CCCCN)C(=O)N[C@H](CCCCN)C(=O)N[C@H](CCCNC(=N)N)C(=O)N(CCCCCC(=O)O)[C@H](CCCCN[C@@H](CS)C(=O)N[C@@H](C(=O)N[C@H](CCCNC(=N)N)C(=O)N1CCC[C@@H]1C(=O)N[C@H](CC(N)=O)C(=O)N[C@H](CC(N)=O)C(=O)N[C@H](CC(N)=O)C(=O)N[C@@H](C(=O)N[C@H](CCCCN)C(=O)N[C@H](CCCNC(=N)N)C(N)=O)[C@@H](C)O)[C@@H](C)O)C(N)=O
Activity [5]: Active | IC50 [13]: 26.8 nM | Activity [24]: inactive | IC50 [25]: 10900 nM | Activity [23]: Non-Toxic
